Values joined by “and” are separate entries in the source; they are usually repeats but may differ in a detail not shown here. Equal entries are not always repeated.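 Method: 48-hour compound exposure of cells in 96-well plates, five concentrations, linear interpolation of endpoints. The concentration for 50% growth inhibition is given as GI50. TGI: concentration producing complete growth inhibition.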
How the values were obtained:
Assay in all cases: NCI tumour cell line growth inhibition, 48 h
UO-31 renal = system: UO-31 renal
MOLT-4 leukemia = system: MOLT-4 leukemia
SW-620 colon = system: SW-620 colon
LXFL 529 NSCLC = system: LXFL 529 NSCLC
RPMI-8226 leukemia = system: RPMI-8226 leukemia
K-562 leukemia = system: K-562 leukemia
SF-295 CNS = system: SF-295 CNS
SNB-78 CNS = system: SNB-78 CNS
NCI-H226 lung = system: NCI-H226 lung
NCI/ADR-RES ovarian = system: NCI/ADR-RES ovarian

Structure (SMILES) | TGI (UO-31 renal) [µM] | TGI (MOLT-4 leukemia) [µM] | TGI (SW-620 colon) [µM] | TGI (LXFL 529 NSCLC) [µM] | TGI (RPMI-8226 leukemia) [µM] | TGI (K-562 leukemia) [µM] | TGI (SF-295 CNS) [µM] | TGI (SNB-78 CNS) [µM] | TGI (NCI-H226 lung) [µM] | GI50 (UO-31 renal) [µM] | GI50 (MOLT-4 leukemia) [µM] | GI50 (SW-620 colon) [µM] | GI50 (RPMI-8226 leukemia) [µM] | GI50 (NCI/ADR-RES ovarian) [µM] | TGI (NCI/ADR-RES ovarian) | GI50 (K-562 leukemia) [µM] | GI50 (SF-295 CNS) [µM] | GI50 (NCI-H226 lung) [µM] | GI50 (SNB-78 CNS) [µM] | GI50 (LXFL 529 NSCLC) [µM]
COc1cc(/C=C2\Cc3ccccc3C2=O)cc(OC)c1OC | > 100 | > 100 | > 100 | > 100 | > 100 | > 100 | > 100 | > 100 | > 100 | – | – | – | – | – | – | – | – | – | – | –
O=C(CC1SC(=Nc2ccccc2Cl)NC1=O)Nc1ccc(Cl)cc1 (centres undefined) | > 100 | – | 28.4 | > 100 | – | > 100 | > 100 | > 100 | – | – | – | – | – | – | – | – | – | – | – | –
Cc1ccccc1C[P+](c1ccccc1)(c1ccccc1)c1ccccc1 | > 100 | > 100 | > 100 | – | 5.4 | > 100 | > 100 | – | > 100 | 40.5 | 4.9 | 2.33 | 0.39 | > 100 | > 100 µM | 0.786 | 2.34 | 3.18 | – | –
O=S(=O)(NCCNc1cc(-c2cn(-c3ccccc3)nc2-c2cccc(O)c2)ccn1)c1ccc(Br)cc1 | 6.96 | 5.98 | 9.68 | – | 5.73 | 5.49 | 3.94 | – | 15 | 2.19 | 2.21 | 3.04 | 2.21 | 3.14 | 12.5 µM | 1.98 | 1.88 | 3.15 | – | –
COC(=O)[C@H](Cc1cn(C)cn1)NC(=O)[C@@H](NC(=O)Nc1cc(C(F)(F)F)cc(C(F)(F)F)c1)C(C)(C)C | > 10 | > 10 | > 10 | – | > 10 | > 10 | > 10 | – | > 10 | > 10 | > 10 | > 10 | > 10 | > 10 | > 10 µM | > 10 | > 10 | > 10 | – | –
CSC1SCC2C(=O)N(C)C(C(C)C)C(=O)OCC(NC(=O)c3cnc4ccccc4n3)C(=O)NC(C)C(=O)N(C)C1C(=O)N(C)C(C(C)C)C(=O)OCC(NC(=O)c1cnc3ccccc3n1)C(=O)NC(C)C(=O)N2C (centres undefined) | – | – | – | – | – | – | – | – | – | 0.00328 | < 0.001 | < 0.001 | < 0.001 | 0.0238 | 0.222 µM and 1.16 µM and 1.41 µM | < 0.001 | < 0.001 | 0.00325 | 8.96e-07 | –
C#CCN(Cc1nc2cc(C(F)(F)F)ccc2nc1-c1ccccc1)c1ccc(F)cc1 | > 100 | > 100 | > 100 | – | 68.7 | > 100 | > 100 | – | > 100 | 31.2 | 36.5 | 26.4 | 23.3 | 29.1 | 84.7 µM | 19.5 | 51.4 | 42.4 | – | –
CCC(C)(C)NS(=O)(=O)c1ccccc1 | > 100 | > 100 | > 100 | > 100 | > 100 | > 100 | > 100 | > 100 | – | – | – | – | – | – | – | – | – | – | – | –
CCOC(=O)C(=O)C(/C(=N/N(C)C)C(=O)Nc1ccc(C)cc1C)c1nc2ccccc2[nH]c1=O (centres undefined) | > 100 | > 100 | > 100 | – | > 100 | > 100 | > 100 | – | > 100 | – | – | – | – | – | > 100 µM | – | – | – | – | –
CCCCCCCCCCCCC(NC(C)=O)(C(=O)OCC)C(=O)OCC | 27.5 | 62.4 | 26.9 | – | 44.8 | > 100 | 26.9 | – | 27.2 | 7.39 | 18.2 | 13 | 10.8 | 10.3 | 23.7 µM | 7.55 | 11.2 | 12.5 | – | –
N.N.NCCCCCN.O=C([O-])CC(=O)[O-].O=C([O-])CC(=O)[O-].[Pt+4].[Pt+4] | > 100 | > 100 | > 100 | > 100 | > 100 | > 100 | > 100 | – | > 100 | > 100 | 65.5 | > 100 | > 100 | – | – | > 100 | 73.1 | > 100 | – | > 100
Cc1ccc2c(c1)-c1oc(=O)c(-c3cc4ccccc4oc3=O)cc1C(O)O2 (centres undefined) | 37.3 | 74.4 | 33.5 | – | > 100 | 76.6 | 38.2 | – | 40.5 | 16.7 | 27.8 | 18.9 | 35.1 | 23.2 | 52.3 µM | 26.2 | 16.3 | 18.9 | – | –
CC(C)=CCc1c(O)c(C(=O)CC(C)C)c(O)c2c(-c3ccccc3)cc(=O)oc12 | > 50 | > 50 | > 50 | – | 16.6 | > 50 | 43.5 | – | > 50 | 8.85 | 10.3 | 14.5 | 2.68 | 9.25 | > 50 µM | 3.05 | 10 | 16.4 | – | –
COc1ccc(-c2cc(-c3ccc(Cl)cc3)nc(SCCCCCCC(=O)NO)n2)cc1 | 3.05 | 2.93 | 10.2 | – | > 50 | 8.86 | 3.01 | – | 23.9 | 0.758 | 0.79 | 1.43 | 1.12 | 0.876 | 3.83 µM | 1.72 | 1.22 | 1.9 | – | –
COc1cc(=O)oc(/C=C/C=C/C=C/C(C)=C\C2(C)OC(C)C(C)(O)C2O)c1C (centres undefined) | > 100 | > 100 | > 100 | – | > 100 | > 100 | > 100 | – | > 100 | – | – | – | – | – | > 100 µM | – | – | – | – | –
CC(C)c1cc(C(=O)[O-])c(O)c(C(C)C)c1.CC(C)c1cc(C(=O)[O-])c(O)c(C(C)C)c1.CC(C)c1cc(C(=O)[O-])c(O)c(C(C)C)c1.CC(C)c1cc(C(=O)[O-])c(O)c(C(C)C)c1.CC(C)c1cc(C(=O)[O-])c(O)c(C(C)C)c1.CC(C)c1cc(C(=O)[O-])c(O)c(C(C)C)c1.[Cu+2].[Mn+2].[Mn+2] | 32.6 | 66.1 | 29.5 | 46.3 | 50.4 | 50.4 | 49.5 | > 100 | – | 16.5 | 20.3 | 14.8 | 14.5 | – | – | 12.8 | 18.1 | – | 37 | 19.6

— PubChem BioAssay (NCI)
